# Measurements published in US20080221074A1, “Drug Screen and Treatment Method” (priority 2006, published 2008).
# What was measured:
# estrogen receptor-β = estrogen receptor-β (Homo sapiens, UniProt Q92731); assay: interaction with sex hormone receptor; format: binding
# [1] = tested on: collagen induced arthritis; assay: collagen induced arthritis (bCII), Foxp3+ cells and clinical score; format: in vivo, DBA/1Lac/J mice
# Method: Increase of CD4^+CD25^+ T regulatory cells or their activity in vivo. The compound 17α-ethynylandrost-5-ene-3β,7β,17β-triol was administered to mice essentially as described in a previously described collagen induced arthritis animal model. H. Offner et al., Clin. Immunol., 110:181-190, 2006.
# DBA/1Lac/J mice were used for the study. The mice were obtained from Jackson Laboratories (Bar Harbor, Harbor, […].) and housed in accordance with applicable institutional guidelines. Bovine type II collagen (bCII) was used to induce collagen induced arthritis (CIA) by immunizing 8-week-old mice with 200 μg of bCII emulsified 1:1 with CFA containing 200 μg Mycobacterium tuberculosis (100 μL; Difco, Detroit, Mich.). The antigen was injected intradermally at the base of the tail. The animals were monitored for 4-7 weeks to observe the onset and progression of the disease post-immunization. The arthritic severity was evaluated with a grading system for each paw according to the following scale: 0=no redness or swelling; 1=slight swelling in ankle or redness in foot; 2=progressed swelling and inflammation and redness from ankle to mid foot; 3=swelling and inflammation of entire foot; 4=swelling and inflammation of entire foot including toes.
# After immunization, the mice were treated with the drug at 40 mg/kg/day in vehicle by oral gavage beginning at the start of observable clinical disease (beginning at about 26-27 days after immunization). The vehicle that was used for the protocol was 30% cyclodextrin-sulfobutylether in water. The cyclodextrin-sulfobutylether was obtained commercially (Captisol™ available at cydexinc.com). The drug formulation was 20 mg drug/mL in the vehicle.
# [2] = tested on: carrageenan-λ induced pleurisy; assay: carrageenan-λ induced lung (pleural cavity) inflammation; format: in vivo, CD1 male mice; conditions: oral gavage; 1 mg and 0.1 mg (17α-ethynyl triol), 40 mg/kg (17β-amino compound)
# Sequence of estrogen receptor-β (Q92731 whole entry, species assumed): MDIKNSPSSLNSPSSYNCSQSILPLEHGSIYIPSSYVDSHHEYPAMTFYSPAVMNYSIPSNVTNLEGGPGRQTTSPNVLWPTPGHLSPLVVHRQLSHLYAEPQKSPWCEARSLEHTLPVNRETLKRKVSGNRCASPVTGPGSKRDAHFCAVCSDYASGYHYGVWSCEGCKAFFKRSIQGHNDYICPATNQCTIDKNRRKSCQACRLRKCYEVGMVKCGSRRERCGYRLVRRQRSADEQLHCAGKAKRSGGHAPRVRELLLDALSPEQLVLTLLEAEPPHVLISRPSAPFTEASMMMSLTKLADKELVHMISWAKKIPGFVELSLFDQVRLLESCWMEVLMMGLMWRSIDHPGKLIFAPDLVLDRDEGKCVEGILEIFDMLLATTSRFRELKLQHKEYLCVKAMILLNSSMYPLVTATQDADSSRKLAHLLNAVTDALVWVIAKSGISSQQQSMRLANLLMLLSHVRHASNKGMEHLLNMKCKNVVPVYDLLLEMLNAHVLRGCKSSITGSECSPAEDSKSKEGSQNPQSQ
smiles,measurement,setting,value
"C#C[C@]1(O)CC[C@H]2[C@@H]3[C@@H](O)C=C4C[C@@H](O)CC[C@]4(C)[C@H]3CC[C@@]21C [17α-ethynylandrost-5-ene-3β,7β,17β-triol]",interaction with estrogen receptor-β,estrogen receptor-β,do not interact
same,Foxp3^+ CD4^+ cells by cell sorter analysis,[1]; 40 mg/kg/day oral gavage,1.4%
same,maximum mean clinical score,[1]; day 34 after immunization,about 5
same,mean clinical score,[1]; day 49 after immunization,about 3
same,anti-inflammation activity compared to vehicle controls,[2],statistically significant anti-inflammation activity
